Laboratory results as given in patent US9060967B2, “Stable aqueous formulation of (E)-4-carboxystyryl-4-chlorobenzyl sulfone” (ONCONOVA THERAPEUTICS, INC, priority 2010, dated 2015).

Experiments:
Type in all cases: physicochemical
[1] = pH stability studies under accelerated conditions
Experimental: (§1) The physio-chemical properties of ON 01210.Na, as an exemplary efficacious radiation protectant drug, were determined in order to evaluate appropriate formulation approaches for development of a safe, reliable and effective parenteral formulation of this compound and other radioprotective α,β-unsaturated arylsulfones. Evaluation studies included microscopic studies, partition coefficient, pKa, pH solubility studies, pH stability studies under accelerated conditions, solid state characterization of the drug substance, and solid state stability of drug substance under accelerated conditions. […] This drug was reasonably stable in an aqueous environment at biological pH. Therefore, it was determined that ON 01210.Na could be formulated as a shelf stable parenteral formulation.

[2] = octanol:water partition coefficient (preformulation study)
Experimental: as §1

[3] = accelerated solid-state stability study of the bulk drug substance
Experimental: as §1

SMILES: O=C([O-])c1ccc(/C=C/S(=O)(=O)Cc2ccc(Cl)cc2)cc1.[Na+] [ON 01210.Na, (E)-4-Carboxystyryl-4-chlorobenzylsulfone, Sodium Salt]
- degradation rate order [1]: pseudo-first-order
- pH-stability profile, degradation ([1]; acidic conditions): rapid
- pH-stability profile ([1]; neutral and biological pH): better stability
- octanol:water partition coefficient [2]: 1.28-2.87
- accelerated solid-state stability [3]: no evidence of degradation
